These results are taken from patent publication US11044932B1, “Composition of (D)-beta-hydroxybutyric acid, (D)-beta-hydroxyvaleric acid, and (D)-1,3 butanediol” (priority 2020, dated 2021).

A short description of data set [1]: administration of D-BHB, D-BHV and D-1,3BD in various ratios to human subjects at rest: circulating ketones and ketotic efficiency. Conditions: for Max change in mMol/L (increase in circulating ketone level): 10 g dose, three human subjects at rest; for 1 hour ketotic efficiency: 1 hour post-administration; for 1 hour ketotic efficiency / 2 hours ketotic efficiency: subject at rest; for 2 hours ketotic efficiency: 2 hours post-administration; for prolonged rise of blood ketone levels / sustained ketonemia: based on measured plasma levels of FIG. 1, subject at rest; for ketotic efficiency, rank in words: both 1 and 2 hours post-administration. In kind it is in vivo. Here is the method:
The administration of examples presented herein result in an increase in the circulating level of ketones in a human subject at rest that is greater than would result from the administration of (D)-β-hydroxybutyrate or (D)-1,3 butanediol alone over a duration of, for example, 120 minutes. Preferred examples include administration of a combination of D-BHB, D-BHV, and D-1,3BD in a therapeutically effective amount such that the rate change of circulating ketones in the blood of a human subject at rest is faster than the administration of an equivalent amount of either D-BHB or D-1,3BD administered alone. In one example, this includes the administration of a composition including a mixture of 43.2%% D-BHB, 1.8% D-BHV and 55% D-1,3BD. In another example, this includes the administration of a composition including a mixture of 52.8% DBHB, 2.2% D-BHV, and 45% D-1,3BD. In another example, this includes the administration of at composition including a mixture of 62.4% D-BHB, 2.6% D-BHV, and 35% D-1,3BD.
Examples include using a composition including D-BHB, D-BHV, and D-1,3BD in a subject at rest. The ketotic efficiency represents the net elevation of circulating ketones a ketone supplement affects over time in an individual. Ketotic efficiency may be represented as:
[formula] where mMol/L is the concentration of circulating 3-hydroxybutyrate in the blood, g is the total dose of the combined D-BHB, D-BHV, and D-1,3,BD in grams, kg is the mass of the individual in kilograms, and t is an increment of time in minutes.
While this example pertains to a fasted subject at rest, the relative utility of blended vs pure constituents has also been observed in fed and active subjects.
As illustrated by the examples of FIG. 1, these exemplary compositions can advantageously elevate circulating ketones by approximately two times greater than other known compositions. Such a composition can sustain ketonemia for longer than either D-BHB or D-1,3BD can when ingested alone by a subject of a given weight as shown by the 100% line (i.e., contains D-BHB, but not D-1,3BD) and the 0% line (i.e., contains only D-1,3BD, but not D-BHB).
As shown in the following table, the increase in circulating ketone level with a 10 g dose in three human subjects at rest was maximal at between 45-55% D-BHB in the tested compositions. […]

The conditions of data set [2]: similar to lemon juice; cited from earlier work.

For the compound `CC(O)CCO` (centres unmarked) [0%, (D)-1,3 butanediol], in data set [1], the “Max change in mMol/L (increase in circulating ketone level)” value was found to be 0.8 mmol/L, the “1 hour ketotic efficiency” value was found to be 266 kg·mmol·min/g/L, the “2 hours ketotic efficiency” value was 462 kg·mmol·min/g/L and the “prolonged rise of blood ketone levels / sustained ketonemia” value is recorded as “does not cause a prolonged rise of blood ketone levels”. Also, the “ketotic efficiency, rank in words” value in data set [1] is recorded as “lowest efficiency”.

Turning to `CC(O)CC(=O)O` (stereo not drawn) [100%, (D)-β-hydroxybutyric acid], the pH in data set [2] was 2.5. In data set [1], the “Max change in mMol/L (increase in circulating ketone level)” value was 0.9 mmol/L, the “1 hour ketotic efficiency” value is 335 kg·mmol·min/g/L, the “2 hours ketotic efficiency” value amounted to 566 kg·mmol·min/g/L and the “prolonged rise of blood ketone levels / sustained ketonemia” value is “A similar result”. In addition, the “ketotic efficiency, rank in words” value in data set [1] is recorded as “lowest efficiency”.
